Results reported in PMC4122359, “Conformational Dynamics of Escherichia coli Flavodoxins in Apo- and Holo-States by Solution NMR Spectroscopy” (PLoS ONE, 2014).

How the values were obtained:
[1] = biological target: T1, FldA (Escherichia coli, UniProt P61949); test: solution NMR structure of holo-form; […] HSQC titration; assay type: binding; settings: oxidized FMN, non-covalent; pH 7.0, 30 mM sodium phosphate, 30 mM NaCl, 25 °C
T1 construct: monomer; long-chain flavodoxin
T1 sequence (P61949 1-176): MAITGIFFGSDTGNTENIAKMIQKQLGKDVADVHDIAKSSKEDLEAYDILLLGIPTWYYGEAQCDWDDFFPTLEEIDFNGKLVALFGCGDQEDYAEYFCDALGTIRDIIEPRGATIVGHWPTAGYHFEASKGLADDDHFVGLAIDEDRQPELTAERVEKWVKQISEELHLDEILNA

[2] = biological target: T2, YqcA (Escherichia coli, UniProt P65367); test: as above; assay type: binding; settings: oxidized FMN, non-covalent; slow exchange; pH 7.0, 30 mM sodium phosphate, 30 mM NaCl, 25 °C
T2 construct: monomer; short-chain flavodoxin
T2 sequence (P65367 whole entry): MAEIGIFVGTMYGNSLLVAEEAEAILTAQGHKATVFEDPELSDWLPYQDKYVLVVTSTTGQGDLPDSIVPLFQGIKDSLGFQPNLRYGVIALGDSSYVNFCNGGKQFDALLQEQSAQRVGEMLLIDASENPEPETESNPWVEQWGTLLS

## Cc1cc2nc3c(=O)[nH]c(=O)nc-3n(C[C@H](O)[C@H](O)[C@H](O)COP(=O)(O)O)c2cc1C [FMN]
[1]
  solution NMR structure of holo-form; 15N HSQC titration: FMN titration experiments were performed with FldA
[2]
  solution NMR structure of holo-form; 15N HSQC titration: These results demonstrate that YqcA binds FMN with high affinity
